Assay results: ChEMBL document CHEMBL1135881, “Ribose-modified nucleosides as ligands for adenosine receptors: synthesis, conformational analysis, and biological evaluation of 1'-C-methyl adenosine analogues” (J Med Chem, 2002)

Tests used:
Adenosine receptor A1 = target: T1, Adenosine receptor A1 (Rattus norvegicus, UniProt P25099)
T1 sequence (P25099 whole entry): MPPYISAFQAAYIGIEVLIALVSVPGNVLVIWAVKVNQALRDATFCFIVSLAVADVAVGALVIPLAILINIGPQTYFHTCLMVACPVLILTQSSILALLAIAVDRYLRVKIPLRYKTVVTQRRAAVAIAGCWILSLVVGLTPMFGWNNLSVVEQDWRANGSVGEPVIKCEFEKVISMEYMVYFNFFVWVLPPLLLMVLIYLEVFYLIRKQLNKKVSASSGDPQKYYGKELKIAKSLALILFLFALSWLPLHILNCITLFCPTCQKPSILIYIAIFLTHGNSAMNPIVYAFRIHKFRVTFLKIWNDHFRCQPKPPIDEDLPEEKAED
Description: Inhibition of [3H]CHA (N6-cyclohexyl adenosine) to rat brain membrane Adenosine A1 receptor

Adenosine receptor A3 = target: T2, Adenosine receptor A3 (Rattus norvegicus, UniProt P28647); experiment: Affinity to Adenosine A3 receptor of rat testis membrane using [3H](R)-PIA with 150 nM DPCPX
T2 sequence (P28647 whole entry): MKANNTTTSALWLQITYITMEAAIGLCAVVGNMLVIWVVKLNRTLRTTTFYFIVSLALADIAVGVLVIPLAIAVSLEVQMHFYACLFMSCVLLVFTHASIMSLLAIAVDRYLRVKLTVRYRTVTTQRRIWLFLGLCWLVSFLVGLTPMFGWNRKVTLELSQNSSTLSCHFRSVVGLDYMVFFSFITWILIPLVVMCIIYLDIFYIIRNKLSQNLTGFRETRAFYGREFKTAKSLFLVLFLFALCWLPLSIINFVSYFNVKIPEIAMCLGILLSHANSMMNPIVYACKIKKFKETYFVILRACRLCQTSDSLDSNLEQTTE

Rattus norvegicus [1] = species on record: Rattus norvegicus; experiment: % maximal inhibition of Adenylyl cyclase activity in rat cortical membranes at 100 uM; format: functional
Rattus norvegicus [2] = species on record: Rattus norvegicus; experiment: Inhibition of Adenylyl cyclase activity in rat cortical membranes; format: functional
[3] = target: Adenosine receptors; A1 & A3 (Rattus norvegicus) (UniProt P25099+P28647); experiment: Selectivity for Adenosine A3 over Adenosine A1 receptor; format: protein assay
[4] = target: T3, Adenosine receptor A3 (Rattus norvegicus) (UniProt P28647); experiment: Displacement of [3H](R)-PIA from Adenosine A3 receptor of rat testis membrane with 150 nM DPCPX
T3 sequence (whole entry): T2 sequence (P28647 whole entry)

[5] = target: T3, Adenosine receptor A3 (Rattus norvegicus); experiment: Displacement of [3H](R)-PIA from Adenosine A3 receptor of rat testis membrane with 150 nM DPCPX at 10e-5 M
Adenosine receptor A2a = Adenosine receptor A2a (Rattus norvegicus, UniProt P30543); experiment: Affinity to Adenosine A2A receptor of rat brain striatum using [3H]-CGS- 21680; format: tissue-based
Rattus norvegicus [6] = species on record: Rattus norvegicus; experiment: % maximal inhibition of Adenylyl cyclase activity in rat cortical membranes at 10 uM; format: functional

Sequence of Adenosine receptor A2a (P30543 whole entry): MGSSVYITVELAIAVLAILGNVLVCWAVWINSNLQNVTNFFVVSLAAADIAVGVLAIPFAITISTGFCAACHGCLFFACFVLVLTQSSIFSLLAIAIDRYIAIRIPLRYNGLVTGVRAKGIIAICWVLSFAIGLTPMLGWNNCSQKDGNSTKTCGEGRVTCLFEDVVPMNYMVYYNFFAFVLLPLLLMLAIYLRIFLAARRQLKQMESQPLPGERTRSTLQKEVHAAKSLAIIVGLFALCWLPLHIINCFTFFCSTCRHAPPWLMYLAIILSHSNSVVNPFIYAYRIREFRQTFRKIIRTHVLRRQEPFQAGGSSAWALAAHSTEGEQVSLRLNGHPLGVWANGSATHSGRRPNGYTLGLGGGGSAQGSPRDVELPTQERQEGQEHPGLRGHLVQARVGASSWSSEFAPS

SMILES | Ki (Adenosine receptor A1) | Ki (Adenosine receptor A3) | Max inhibition (Rattus norvegicus [1]) | IC50 (Rattus norvegicus [2]) | Selectivity [3] | other results
C[C@@H](Cc1ccccc1)Nc1ncnc2c1ncn2[C@]1(C)O[C@H](CO)[C@@H](O)[C@H]1O | 270 nM | 6160 nM | 29% | 140 nM |  | 
C[C@@]1(O)[C@@H](CO)O[C@@H](n2cnc3c(N)ncnc32)[C@@H]1O |  |  |  |  | > 202 | 
C[C@@]1(n2cnc3c(N)ncnc32)O[C@H](CO)[C@@H](O)[C@H]1O | 7700 nM |  | 22% | 3440 nM | > 1.3 | Displacement [4]: 19%
C[C@@H](Cc1ccccc1)Nc1ncnc2c1ncn2C1O[C@H](CO)[C@@H](O)[C@@]1(C)O (some centres undefined) | 50 nM |  |  |  | 200 | 
C[C@@]1(n2cnc3c(NC4CCCC4)ncnc32)O[C@H](CO)[C@@H](O)[C@H]1O | 100 nM | 5170 nM | 17.4% | 357 nM | 52 | 
C[C@@]1(O)[C@H](O)[C@@H](CO)O[C@H]1n1cnc2c(N)ncnc21 | 740 nM |  |  |  |  | Displacement [5]: 0%
C[C@H](Cc1ccccc1)Nc1ncnc2c1ncn2[C@@H]1O[C@H](CO)[C@@H](O)[C@@]1(C)O | 4.7 nM |  |  |  | 230 | Ki (Adenosine receptor A2a): 7400 nM
C[C@@]1(O)[C@H](O)[C@@H](CO)O[C@H]1n1cnc2c(NC3CCCC3)ncnc21 | 9.5 nM |  |  |  | 22.1 | 
OC[C@H]1O[C@@H](n2cnc3c(NC4CCCC4)ncnc32)[C@H](O)[C@@H]1O [N6-CYCLOPENTYLADENOSINE] |  |  |  |  |  | Max inhibition (Rattus norvegicus [6]): 15.5%; Ki (Adenosine receptor A2a): 380 nM
C[C@H](Cc1ccccc1)Nc1ncnc2c1ncn2[C@]1(C)O[C@H](CO)[C@@H](O)[C@H]1O |  | 670 nM | 23.7% | 65 nM |  | 
